In paper PMC10663540, “Structure-based discovery of dual pathway inhibitors for SARS-CoV-2 entry” (Nature Communications, 2023):
Values joined by “and” are separate entries in the source; they are usually repeats but may differ in a detail not shown here. Equal entries are not always repeated. Where two headings read alike, the source gives them in different places.

Experiments:
[1] = tested on: SARS-CoV-2 Delta variant; test: microbe, parasite or virus in culture; format: cell-based
[2] = tested on: SARS-CoV-2 Omicron BA.2 variant; test: microbe, parasite or virus in culture; format: cell-based; conditions: for EC50: Severe acute respiratory syndrome coronavirus 2
[3] = Severe acute respiratory syndrome coronavirus 2, Calu-3; read-out: Antiviral efficacy EC50 (95% CI)
[4] = Calu-3, Omicron BA.2, […], read-out: Antiviral efficacy EC50 (95% CI)
[5] = Calu-3, Omicron BA.2, one representative replicate, before reprocessing, read-out: EC50, original manuscript version
[6] = Severe acute respiratory syndrome coronavirus 2, Calu-3, read-out: Antiviral efficacy EC50 (95% CI)
[7] = Severe acute respiratory syndrome coronavirus 2, Calu-3, read-out: Inhibition: Delta
[8] = Calu-3; 0.0012207 μM; replicates
[9] = Calu-3; 0.00488281 μM; replicates
[10] = Calu-3; 0.0195312 μM; replicates
[11] = Calu-3; 0.078125 μM; replicates

Q: How did the “Inhibition: Delta/Calu-3” value ([1]; 212-148 8 μM; Fig. 5e) turn out when `NC(N)=Nc1ccc(C(=O)OCCN2CCN(C(=O)N[C@@H](Cc3ccccc3)C(=O)N[C@H](/C=C/S(=O)(=O)c3ccccc3)CCc3ccccc3)CC2)cc1` [212-148] was run?
A: 89.60% and 87.76%

Q: And the “Inhibition: Delta/Calu-3” value ([1]; 212-148 40 μM; Fig. 5e)?
A: 98.01%

Q: And the “Selectivity index (SI = CC50/EC50)” value ([1]; Calu-3; Delta)?
A: 1,476

Q: And the “block of viral replication in TCID50 assay (in words)” value ([1]; Calu-3; delta strain or omicron strain BA.2 (Fig. 5e))?
A: completely blocked

Q: And the inhibition at 8 µM ([1]; Severe acute respiratory syndrome coronavirus 2, Calu-3, 212-148 8 μM; Fig. 5e; read-out: Inhibition: Delta/Calu-3)?
A: 85.5%

Q: And the inhibition at 40 µM ([1]; Severe acute respiratory syndrome coronavirus 2, Calu-3, 212-148 40 μM; Fig. 5e; read-out: Inhibition: Delta/Calu-3)?
A: 96.1%

Q: What about the inhibition at 200 µM ([1]; Severe acute respiratory syndrome coronavirus 2, Calu-3, 212-148 200 μM; Fig. 5e) of the same compound?
A: 100%

Q: And the EC50 [1, 3]?
A: 235 nM

Q: What about the “Inhibition: BA.2/Calu-3” value ([2]; 212-148 0.00256 μM, Fig. 5e) of the same compound?
A: 7.11%

Q: And the “Inhibition: BA.2/Calu-3” value ([2]; 212-148 0.064 μM, Fig. 5e)?
A: 29.70% and 52.65%

Q: What about the “Inhibition: BA.2/Calu-3” value ([2]; 212-148 8 μM, Fig. 5e) of the same compound?
A: 88.58%

Q: And the “Selectivity index (SI = CC50/EC50)” value ([2]; Calu-3, Omicron BA.2)?
A: 5,391

Q: What about the inhibition at 8 µM ([2]; Severe acute respiratory syndrome coronavirus 2, Calu-3, 212-148 8 μM, Fig. 5e) of the same compound?
A: 85.9%

Q: What about the inhibition at 40 µM ([2]; Severe acute respiratory syndrome coronavirus 2, Calu-3, 212-148 40 μM, Fig. 5e) of the same compound?
A: 99.4%

Q: And the EC50 [2, 4]?
A: 64.4 nM

Q: How did the “Inhibition: Omicron BA.2” value ([2]; 0.0411523 µM) turn out when `CCOC(=O)C1OC1C(=O)NC(CC(C)C)C(=O)NCCC(C)C` (centres unmarked) [E64d] was run?
A: -1.22%

Q: And the “Inhibition: Omicron BA.2” value ([2]; 0.123457 µM)?
A: 20.89% and 27.12%

Q: And the “Inhibition: Omicron BA.2” value ([2]; 0.37037 µM)?
A: 68.35% and 58.49%

Q: And the “Inhibition: Omicron BA.2” value ([2]; 1.11111 µM)?
A: 89.97% and 78.59%

Q: What about the “Inhibition: Omicron BA.2” value ([2]; 3.33333 µM) of the same compound?
A: 93.67% and 90.37%

Q: And the “Inhibition: Omicron BA.2” value ([2]; 10 µM)?
A: 97.22% and 98.95%

Q: What about the EC50 [2, 4] of the same compound?
A: 240 nM

Q: And the EC50 [2, 5]?
A: 227 nM

Q: With `CN(C)C(=O)COC(=O)Cc1ccc(OC(=O)c2ccc(NC(=N)N)cc2)cc1` [Camostat] as the compound, how does the “Inhibition: Delta” value ([1]; 0.078125 µM) read?
A: 31.59% and 52.79%

Q: And the “Inhibition: Delta” value ([1]; 0.3125 µM)?
A: 64%

Q: What about the “Inhibition: Delta” value ([1]; 1.25 µM) of the same compound?
A: 96.40%

Q: And the “Inhibition: Delta” value ([1]; 5 µM)?
A: 92.99%

Q: And the “Inhibition: Delta” value ([1]; 20 µM)?
A: 91.24%

Q: And the EC50 [1, 6]?
A: 109 nM

Q: What about the inhibition at 0.3125 µM [1, 7] of the same compound?
A: 53.9%

Q: And the inhibition at 1.25 µM [1, 7]?
A: 95.4%

Q: What about the inhibition at 5 µM [1, 7] of the same compound?
A: 92.4%

Q: What about the inhibition at 20 µM [1, 7] of the same compound?
A: 88.9%

Q: What does the source list for `CCOC(=O)c1ccc(OC(=O)CCCCCNC(=N)N)cc1` [Gabexate]?
A: Inhibition: Delta [1, 8]: 14.57% and 29.88%; Inhibition: Delta [1, 9]: -54.36% and -37.95%; Inhibition: Delta [1, 10]: -64.93% and -37.95%; Inhibition: Delta [1, 11]: 31.59% and -7.79%; Inhibition: Delta ([1]; Calu-3; 0.3125 μM; replicates): 39.67%; Inhibition: Delta ([1]; Calu-3; 1.25 μM; replicates): -34.59% and 12.43%; Inhibition: Delta ([1]; Calu-3; 5 μM; replicates): 64.87% and -37.95%; Inhibition: Delta ([1]; Calu-3; 20 μM; replicates): -11.09% and 39.67%; inhibitory efficacy (in words) ([1]; Calu-3; Delta): negligible; inhibition at 0.3125 µM ([1]; Severe acute respiratory syndrome coronavirus 2, Calu-3, Calu-3; 0.3125 μM; replicates; read-out: Inhibition: Delta): 53.9%; EC50 [1, 3]: > 20000 nM

Q: Which results are given for `CC(C)(NS(=O)(=O)c1ccc2c(Cl)cnc(N=C(N)N)c2c1)C(=O)O` [UK-371804]?
A: Inhibition: Delta [1, 8]: -13.87% and -11.09%; Inhibition: Delta [1, 9]: -7.79% and -36.72%; Inhibition: Delta [1, 10]: -13.87% and -11.09%; Inhibition: Delta [1, 11]: 5.76%; Inhibition: Delta ([1]; Calu-3; 0.3125 μM; replicates): 29.88% and 14.57%; Inhibition: Delta ([1]; Calu-3; 1.25 μM; replicates): 77.84%; Inhibition: Delta ([1]; Calu-3; 5 μM; replicates): 90.58%; Inhibition: Delta ([1]; Calu-3; 20 μM; replicates): 90.58%; Selectivity index (SI = CC50/EC50) ([1]; Calu-3; Delta): 405; inhibition at 0.078125 µM ([1]; Severe acute respiratory syndrome coronavirus 2, Calu-3, Calu-3; 0.078125 μM; replicates): 7.48%; inhibition at 1.25 µM ([1]; Severe acute respiratory syndrome coronavirus 2, Calu-3, Calu-3; 1.25 μM; replicates; read-out: Inhibition: Delta): 77.3%; inhibition at 5 µM ([1]; Severe acute respiratory syndrome coronavirus 2, Calu-3, Calu-3; 5 μM; replicates; read-out: Inhibition: Delta): 88.6%; inhibition at 20 µM ([1]; Severe acute respiratory syndrome coronavirus 2, Calu-3, Calu-3; 20 μM; replicates; read-out: Inhibition: Delta): 93%; EC50 [1, 3]: 425 nM

Q: How did the “Inhibition: Delta” value ([1]; 0.00128 µM) turn out when `N=C(N)c1ccc2cc(OC(=O)c3ccc(N=C(N)N)cc3)ccc2c1` [Nafamostat] was run?
A: -1.10% and 5.80% and -6.46e-6%

Q: What about the “Inhibition: Delta” value ([1]; 20 µM) of the same compound?
A: 99.61%

Q: And the EC50 [1, 6]?
A: 26.3 nM

Q: And the inhibition at 0.8 µM [1, 7]?
A: 98.8%

Q: What about the inhibition at 4 µM [1, 7] of the same compound?
A: 98.6%

Q: And the inhibition at 20 µM [1, 7]?
A: 99.8%

Q: And the inhibition at […] [1, 7]?
A: 90.6% and 87.8%

Q: Which “Inhibition: Delta” value ([1]; Calu-3; 0.00256 μM; replicates) does the source give for `CN1CCN(C(=O)N[C@@H](Cc2ccccc2)C(=O)N[C@H](/C=C/S(=O)(=O)c2ccccc2)CCc2ccccc2)CC1` [K777] here?
A: -6.46e-6% and 5.80% and -22.49%

Q: What about the “Inhibition: Delta” value ([1]; Calu-3; 0.0128 μM; replicates) of the same compound?
A: 16.53% (2×) and 0.45%

Q: And the “Inhibition: Delta” value ([1]; Calu-3; 0.064 μM; replicates)?
A: 24.66% (2×) and 0.45%

Q: And the “Inhibition: Delta” value ([1]; Calu-3; 8 μM; replicates)?
A: 82.03%

Q: What about the “Inhibition: Delta” value ([1]; Calu-3; 40 μM; replicates) of the same compound?
A: 97.04%

Q: And the inhibition at 8 µM ([1]; Severe acute respiratory syndrome coronavirus 2, Calu-3, Calu-3; 8 μM; replicates; read-out: Inhibition: Delta)?
A: 85.5%

Q: And the inhibition at 40 µM ([1]; Severe acute respiratory syndrome coronavirus 2, Calu-3, Calu-3; 40 μM; replicates; read-out: Inhibition: Delta)?
A: 98%

Q: What about the EC50 [1, 3] of the same compound?
A: 638 nM

Q: What about the “Inhibition: Omicron BA.2” value ([2]; Calu-3, 0.00457247 μM, rep1-rep2) of the same compound?
A: -0.32% and 3.09%

Q: And the “Inhibition: Omicron BA.2” value ([2]; Calu-3, 0.123457 μM, rep1-rep2)?
A: 90.17%

Q: And the “Inhibition: Omicron BA.2” value ([2]; Calu-3, 0.37037 μM, rep1-rep2)?
A: 90.95%

Q: What about the “Inhibition: Omicron BA.2” value ([2]; Calu-3, 1.11111 μM, rep1-rep2) of the same compound?
A: 85.59%

Q: And the “Inhibition: Omicron BA.2” value ([2]; Calu-3, 3.33333 μM, rep1-rep2)?
A: 91.43%

Q: And the “Inhibition: Omicron BA.2” value ([2]; Calu-3, 10 μM, rep1-rep2)?
A: 91.43%

Q: What about the inhibition at 0.123457 µM ([2]; Severe acute respiratory syndrome coronavirus 2, Calu-3, Calu-3, 0.123457 μM, rep1-rep2) of the same compound?
A: 70.6%

Q: What about the inhibition at 0.37037 µM ([2]; Severe acute respiratory syndrome coronavirus 2, Calu-3, Calu-3, 0.37037 μM, rep1-rep2) of the same compound?
A: 87.7%

Q: And the inhibition at 1.11111 µM ([2]; Severe acute respiratory syndrome coronavirus 2, Calu-3, Calu-3, 1.11111 μM, rep1-rep2)?
A: 97.1%

Q: What about the inhibition at 3.33333 µM ([2]; Severe acute respiratory syndrome coronavirus 2, Calu-3, Calu-3, 3.33333 μM, rep1-rep2) of the same compound?
A: 98%

Q: And the inhibition at 10 µM ([2]; Severe acute respiratory syndrome coronavirus 2, Calu-3, Calu-3, 10 μM, rep1-rep2)?
A: 99.2%

Q: What about the EC50 [2, 4] of the same compound?
A: 14 nM

Q: What about the EC50 [2, 5] of the same compound?
A: 77.7 nM
